The values below come from ChEMBL document CHEMBL5291721, “A preclinical secondary pharmacology resource illuminates target-adverse drug reaction associations of marketed drugs” (Nat Commun, 2023).

Where only a bound is given, the exact number is not on record here.

In assay [1] the target is T1, Peroxisome proliferator-activated receptor alpha (Homo sapiens, UniProt Q07869).
T1 sequence (Q07869 whole entry): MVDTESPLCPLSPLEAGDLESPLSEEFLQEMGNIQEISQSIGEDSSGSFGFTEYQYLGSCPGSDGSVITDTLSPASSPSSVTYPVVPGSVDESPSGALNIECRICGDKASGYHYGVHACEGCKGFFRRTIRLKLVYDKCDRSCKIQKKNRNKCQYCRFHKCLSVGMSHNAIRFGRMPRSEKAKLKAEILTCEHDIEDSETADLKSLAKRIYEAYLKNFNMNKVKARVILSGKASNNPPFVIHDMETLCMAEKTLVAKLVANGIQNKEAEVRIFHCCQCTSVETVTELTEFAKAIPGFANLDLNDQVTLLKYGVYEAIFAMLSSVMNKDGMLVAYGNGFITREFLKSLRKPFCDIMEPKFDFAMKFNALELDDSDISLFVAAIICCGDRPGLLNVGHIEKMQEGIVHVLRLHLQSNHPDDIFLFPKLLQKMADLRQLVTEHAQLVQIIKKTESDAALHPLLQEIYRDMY
It is filed as functional.

A further assay addresses T2, Androgen receptor (Rattus norvegicus, UniProt P15207).
T2 sequence (P15207 whole entry): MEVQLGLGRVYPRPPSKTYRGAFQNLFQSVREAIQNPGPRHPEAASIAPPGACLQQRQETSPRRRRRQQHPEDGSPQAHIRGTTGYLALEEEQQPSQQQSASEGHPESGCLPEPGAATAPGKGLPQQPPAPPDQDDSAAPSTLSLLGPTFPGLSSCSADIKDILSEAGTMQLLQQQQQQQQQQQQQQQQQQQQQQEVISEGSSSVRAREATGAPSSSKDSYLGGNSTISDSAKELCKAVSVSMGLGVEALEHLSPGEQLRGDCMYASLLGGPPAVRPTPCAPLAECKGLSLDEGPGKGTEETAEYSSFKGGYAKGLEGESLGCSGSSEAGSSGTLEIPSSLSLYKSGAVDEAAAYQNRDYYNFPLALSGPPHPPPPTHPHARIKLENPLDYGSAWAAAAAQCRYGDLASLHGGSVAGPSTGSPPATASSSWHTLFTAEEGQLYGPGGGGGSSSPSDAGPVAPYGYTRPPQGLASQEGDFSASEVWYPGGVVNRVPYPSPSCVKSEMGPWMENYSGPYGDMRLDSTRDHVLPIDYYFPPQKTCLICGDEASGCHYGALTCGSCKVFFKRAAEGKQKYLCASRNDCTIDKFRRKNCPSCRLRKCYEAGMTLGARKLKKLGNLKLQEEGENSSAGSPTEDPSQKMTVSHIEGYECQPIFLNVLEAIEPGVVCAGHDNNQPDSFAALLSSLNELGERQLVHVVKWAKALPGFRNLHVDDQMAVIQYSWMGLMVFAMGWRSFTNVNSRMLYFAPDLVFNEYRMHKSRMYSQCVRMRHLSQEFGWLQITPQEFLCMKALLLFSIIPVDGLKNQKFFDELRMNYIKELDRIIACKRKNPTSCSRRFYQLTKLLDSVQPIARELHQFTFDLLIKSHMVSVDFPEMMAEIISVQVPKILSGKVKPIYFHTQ
It is filed as functional.

The target in another assay is D(1B) dopamine receptor (Homo sapiens, UniProt P21918).
Assay [2] has as its target T3, Muscarinic acetylcholine receptor M4 (Homo sapiens, UniProt P08173).
T3 sequence (P08173 whole entry): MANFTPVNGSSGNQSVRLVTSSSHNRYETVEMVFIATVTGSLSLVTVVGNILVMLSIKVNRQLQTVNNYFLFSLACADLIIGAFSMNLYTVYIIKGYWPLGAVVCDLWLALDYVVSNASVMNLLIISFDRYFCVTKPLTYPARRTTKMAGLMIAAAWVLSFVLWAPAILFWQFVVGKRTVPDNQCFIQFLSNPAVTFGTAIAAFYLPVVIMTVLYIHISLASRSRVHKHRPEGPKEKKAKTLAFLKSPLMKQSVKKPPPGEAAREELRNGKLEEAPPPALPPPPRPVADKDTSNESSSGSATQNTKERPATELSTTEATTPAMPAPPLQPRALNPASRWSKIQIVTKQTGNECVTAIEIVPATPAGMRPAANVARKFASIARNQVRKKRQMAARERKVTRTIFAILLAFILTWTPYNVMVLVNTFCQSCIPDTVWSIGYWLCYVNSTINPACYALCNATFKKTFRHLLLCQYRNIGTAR

The target of assay [3] is 5-hydroxytryptamine receptor 5A (Homo sapiens, UniProt P47898).
Another assay addresses T4, Substance-K receptor (Homo sapiens, UniProt P21452).
T4 sequence (P21452 whole entry): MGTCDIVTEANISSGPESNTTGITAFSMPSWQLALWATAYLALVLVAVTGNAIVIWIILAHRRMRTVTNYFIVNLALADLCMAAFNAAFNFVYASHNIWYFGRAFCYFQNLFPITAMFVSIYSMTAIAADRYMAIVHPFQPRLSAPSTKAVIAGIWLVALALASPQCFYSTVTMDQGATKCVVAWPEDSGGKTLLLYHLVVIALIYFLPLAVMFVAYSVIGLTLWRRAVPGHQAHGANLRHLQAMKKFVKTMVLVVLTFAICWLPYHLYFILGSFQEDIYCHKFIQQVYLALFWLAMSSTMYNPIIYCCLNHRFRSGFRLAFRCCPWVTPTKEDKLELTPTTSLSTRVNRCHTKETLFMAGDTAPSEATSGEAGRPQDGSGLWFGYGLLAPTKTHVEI

Assay [4] addresses 5-hydroxytryptamine receptor 2A (Homo sapiens, UniProt P28223).
Assay [5] deals with T5, Nuclear receptor subfamily 1 group I member 3 (Homo sapiens, UniProt Q14994).
T5 sequence (Q14994 whole entry): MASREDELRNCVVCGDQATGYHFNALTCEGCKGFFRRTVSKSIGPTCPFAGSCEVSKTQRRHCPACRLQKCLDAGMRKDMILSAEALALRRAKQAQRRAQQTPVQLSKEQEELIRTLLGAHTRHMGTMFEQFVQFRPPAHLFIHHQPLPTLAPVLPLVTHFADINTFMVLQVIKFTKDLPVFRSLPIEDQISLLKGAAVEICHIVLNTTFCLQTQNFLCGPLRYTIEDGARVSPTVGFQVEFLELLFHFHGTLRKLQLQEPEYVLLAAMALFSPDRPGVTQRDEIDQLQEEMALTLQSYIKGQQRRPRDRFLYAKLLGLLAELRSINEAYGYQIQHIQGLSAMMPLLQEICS
It is filed as functional.
Note: assay procedure not described here.

Chain of 5-hydroxytryptamine receptor 5A (P47898 whole entry): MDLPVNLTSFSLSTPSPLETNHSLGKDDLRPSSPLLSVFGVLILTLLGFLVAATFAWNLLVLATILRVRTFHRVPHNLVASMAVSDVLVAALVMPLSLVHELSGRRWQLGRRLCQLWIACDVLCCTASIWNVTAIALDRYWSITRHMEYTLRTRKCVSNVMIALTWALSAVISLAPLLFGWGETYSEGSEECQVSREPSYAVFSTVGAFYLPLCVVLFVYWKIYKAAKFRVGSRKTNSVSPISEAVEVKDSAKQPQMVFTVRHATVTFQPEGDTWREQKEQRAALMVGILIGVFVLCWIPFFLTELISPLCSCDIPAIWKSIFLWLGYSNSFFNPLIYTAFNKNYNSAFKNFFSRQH
Chain of D(1B) dopamine receptor (P21918 whole entry): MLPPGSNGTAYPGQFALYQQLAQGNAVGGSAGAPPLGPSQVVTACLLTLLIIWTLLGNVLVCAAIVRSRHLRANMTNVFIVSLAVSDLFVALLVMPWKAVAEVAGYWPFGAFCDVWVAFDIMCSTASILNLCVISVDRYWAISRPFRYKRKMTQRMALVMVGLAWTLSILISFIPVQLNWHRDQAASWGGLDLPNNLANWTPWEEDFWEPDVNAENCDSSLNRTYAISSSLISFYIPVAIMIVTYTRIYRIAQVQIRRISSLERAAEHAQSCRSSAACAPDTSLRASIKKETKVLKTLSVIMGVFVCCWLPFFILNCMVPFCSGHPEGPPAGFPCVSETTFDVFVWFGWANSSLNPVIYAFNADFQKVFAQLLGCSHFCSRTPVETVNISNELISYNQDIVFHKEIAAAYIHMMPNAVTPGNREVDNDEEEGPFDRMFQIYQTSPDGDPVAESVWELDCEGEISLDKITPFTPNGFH
Chain of 5-hydroxytryptamine receptor 2A (P28223 whole entry): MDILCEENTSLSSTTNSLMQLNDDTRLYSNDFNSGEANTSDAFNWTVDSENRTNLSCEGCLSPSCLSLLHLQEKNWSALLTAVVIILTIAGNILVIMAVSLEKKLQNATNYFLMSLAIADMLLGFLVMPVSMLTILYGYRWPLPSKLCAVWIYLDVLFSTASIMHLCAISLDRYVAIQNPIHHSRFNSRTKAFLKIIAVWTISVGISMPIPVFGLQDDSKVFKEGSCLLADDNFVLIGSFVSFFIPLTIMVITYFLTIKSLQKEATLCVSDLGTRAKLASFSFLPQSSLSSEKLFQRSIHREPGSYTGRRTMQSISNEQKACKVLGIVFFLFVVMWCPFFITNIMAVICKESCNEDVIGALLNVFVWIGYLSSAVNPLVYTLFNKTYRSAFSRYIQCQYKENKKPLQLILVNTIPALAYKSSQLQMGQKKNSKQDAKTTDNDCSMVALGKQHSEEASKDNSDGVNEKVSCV

A word on the AC50: it is the concentration at which the activity in the assay is half-maximal. A high value points to weaker potency. As to `CC(=O)Nc1ccc(O)cc1` [ACETAMINOPHEN], the AC50 in assay [1] was greater than 30 µM.
`C=CCc1ccccc1OCC(O)CNC(C)C` (stereo unspecified) [ALPRENOLOL] yielded a concentration at half-maximal activity (AC50) at Androgen receptor greater than 30 µM.
As for `NCC(CC(=O)O)c1ccc(Cl)cc1` (stereo unspecified) [BACLOFEN], the half-maximal activity concentration (AC50) (on D(1B) dopamine receptor; in assay [2]; in assay [3]; on Substance-K receptor) was greater than 10 µM throughout.
As for `Cc1ccc(-c2cc(C(F)(F)F)nn2-c2ccc(S(N)(=O)=O)cc2)cc1` [CELECOXIB], the AC50 (on D(1B) dopamine receptor; in assay [2]; in assay [3]; on Substance-K receptor) was greater than 10 µM throughout.
Consider `CN(C)CCC(c1ccc(Cl)cc1)c1ccccn1` (stereo unspecified) [CHLORPHENIRAMINE], for which the half-maximal activity concentration (AC50) (on D(1B) dopamine receptor; in assay [2]; in assay [3]; on Substance-K receptor) was greater than 10 µM each time.
`O=C1Nc2ccc(Cl)cc2[C@@](C#CC2CC2)(C(F)(F)F)O1` [EFAVIRENZ] yielded a half-maximal activity concentration (AC50) in assay [4] of 3.79 µM.
`CCC1=C(C)CN(C(=O)NCCc2ccc(S(=O)(=O)NC(=O)N[C@H]3CC[C@H](C)CC3)cc2)C1=O` [GLIMEPIRIDE]: the half-maximal activity concentration (AC50) in assay [1] is greater than 30 µM.
Turning to `CCC(C)n1ncn(-c2ccc(N3CCN(c4ccc(OCC5COC(Cn6cncn6)(c6ccc(Cl)cc6Cl)O5)cc4)CC3)cc2)c1=O` (stereo unspecified) [ITRACONAZOLE], the AC50 in assay [5] and in assay [1] was greater than 30 µM in each case.
Take `CN1C(C(=O)Nc2ccccn2)=C(O)c2sc(Cl)cc2S1(=O)=O` [LORNOXICAM]: the half-maximal activity concentration (AC50) in assay [4] is greater than 10 µM; in assay [5], greater than 30 µM; in assay [1], greater than 30 µM.
With `CC[C@H]1[C@@H](O)[C@@H]2[C@H](CC[C@]3(C)[C@@H]([C@H](C)CCC(=O)O)CC[C@@H]23)[C@@]2(C)CC[C@@H](O)C[C@@H]12` [OBETICHOLIC ACID], the concentration at half-maximal activity (AC50) on Androgen receptor is greater than 30 µM.
Consider `Cc1c(C(=O)NN2CCCCC2)nn(-c2ccc(Cl)cc2Cl)c1-c1ccc(Cl)cc1` [RIMONABANT], for which the AC50 at D(1B) dopamine receptor was greater than 10 µM; in assay [2] it was greater than 10 µM; in assay [4], greater than 10 µM; in assay [3], greater than 10 µM; at Substance-K receptor it was greater than 10 µM; in assay [5], 6.6 µM. The same compound displayed an AC50 in assay [1] greater than 30 µM.
On to `CS(=O)(=O)c1ccc(C2=C(c3ccccc3)C(=O)OC2)cc1` [ROFECOXIB], for which the half-maximal activity concentration (AC50) (at D(1B) dopamine receptor; in assay [2]; in assay [3]; on Substance-K receptor) was greater than 10 µM in each case.
In assay [4], `Cn1nnc2c(C(N)=O)ncn2c1=O` [TEMOZOLOMIDE] yielded an AC50 greater than 10 µM.
`O=C(O[C@H]1C[C@H]2CC[C@@H](C1)[N+]21CCCC1)C(O)(c1ccccc1)c1ccccc1` [TROSPIUM]: the AC50 on Androgen receptor was greater than 30 µM.
For the compound `N[C@@H]1[C@H]2CN(c3nc4c(cc3F)c(=O)c(C(=O)O)cn4-c3ccc(F)cc3F)C[C@@H]12` [TROVAFLOXACIN], the AC50 in assay [5] was greater than 30 µM.
